“Also recorded” adds a separate entry of the source.
Experiments:
MIA PaCa-2 cells = assay: Cell viability assay (CCK-8); format: cell-based, human; settings: for cell viability in NHE1-silenced cells: NHE1 KD MIA PaCa-2 cells
Experimental: Cell viability assay. Cell viability was determined with Cell Counting Kit-8 assay (CCK-8 assay kit, Glpbio). Cells were plated in 96-well plates at a density of 3000 cells (MIA PaCa-2) or 1500 cells (KC6141) per well and incubated overnight prior to treatment. EIPA (10 μM), MRT68921 (600 nM) or erlotinib (2 μM, Sigma) were added to the wells for 72 and 96 hrs. Next, 10 μL of CCK-8 was added to each well. The optical density was read at 450 nm using a microplate reader (FilterMax F5, Molecular Devices, USA) at day 0, 1, 2, 3, and 4. For glutamine-deprivation assays, cells in 96-well plates were rinsed briefly in PBS and incubated in the 0.2 mM glutamine. Glutamine-free DMEM medium was supplemented with 0.2 mM glutamine in the presence of 10% dialysed FBS and 25 mM HEPES. For some conditions, the medium was supplemented with a final concentration of 2% BSA (Fraction V, fatty-acid-, nuclease and protease-free, Calbiochem). For all experiments, media were replaced every 24 hrs. Viable cell counts were obtained using CCK-8 assay described as above.
In some embodiments, cells were plated in 96-well plates coated with or without ECM at a density of 3000 cells (MIA PaCa-2, 1444, 1305, COLO 357/FG) or 1500 cells (KC6141) per well and incubated overnight prior to treatment. EIPA (10.5 μM), IPI549 (600 nM), MBQ-167 (500 nM), MRT68921 (600 nM) or erlotinib (2 μM, Sigma), ML385 (10 μM, Sigma), HCQ (10 μM or 80 μM) or their combinations were added to the wells for 24, 72 or 96 hrs. Next, 10 μL of CCK-8 was added to each well. The optical density was read at 450 nm using a microplate reader (FilterMax F5, Molecular Devices, USA) at day 0, 1, 2, 3, and 4. For glutamine-deprivation assays, cells in 96-well plates were rinsed briefly in PBS and incubated in the 0.2 mM glutamine. Glutamine-free DMEM medium was supplemented with 0.2 mM glutamine in the presence of 10% dialyzed FBS and 25 mM HEPES. For glucose-deprivation assays, cells in 96-well plates were rinsed briefly in PBS and incubated in the 0.5 mM glucose. Glucose-free DMEM medium was supplemented with 0.5 mM glucose in the presence of 10% dialyzed FBS and 25 mM HEPES. For some conditions, the medium was supplemented with a final concentration of 2% BSA (Fraction V, fatty-acid-, nuclease and protease-free, Calbiochem). For all experiments, media were replaced every 24 hrs. Viable cell counts were obtained using CCK-8 assay described as above.

KC6141 cells = assay: NADPH/NADP measurement; format: cell-based, mouse; settings: 0.5 mM glucose, 24 hrs; for NADPH to NADP ratio: KC6141 cells on ECM
Experimental: Extracellular Matrix (ECM) Preparation. Skin fibroblasts were seeded on 6/12/96-well plates. One day after plating, cells were switched into DMEM (with pyruvate) with 10% dialysed FBS supplemented with or without 500 μM ^3H-proline and 100 μM Vitamin C. Cells were cultured for 6 days with media renewal every 24 h. After six days, skin fibroblasts were removed by washing in 1 ml or 500 μl or 100 μl per well PBS with 0.5% (v/v) Triton X-100 and 20 mM NH4OH. ECM was washed five times with PBS before plating KC6141 cells. The following day, KC6141 cells were switched into the indicated medium for 24 or 72 hrs. NADPH/NADP Measurement. NADPH and NADP measurement was performed using NADP/NADPH-Glo™ Assays (Promega #G9081) according to manufacturer's protocol. Briefly, KC6141 cells were grown on 96-well plates coated with ECM and treated as above. Then medium was removed and replaced with 50 μl of PBS and 50 μl of base solution with 1% DTAB. The plate was briefly mixed to ensure homogeneity and cell lysis. 50 μl of each sample was removed to an empty well for acid treatment. 25 μl per well of 0.4N HCl was added into these samples. All samples were incubated for 15 minutes at 60° C. and then equilibrated for 10 minutes at room temperature. 25 μl of 0.5M Trizma® base was added into each well of acid-treated cells to neutralize the acid. 50 μl of HCl/Trizma® solution was added to each well containing base-treated samples. Then 100 μl of NADP/NADPH-Glo™ Detection Reagent was added into each well and incubated for 30 minutes at room temperature. Luminescence was recorded using a luminometer.

| Compound | cell viability in NHE1-silenced cells (MIA PaCa-2 cells; 3 days) | NADPH to NADP ratio (KC6141 cells) | sensitivity to single agent (cell viability) (MIA PaCa-2 cells; ATG7^Δ or IKKα-deficient MIA PaCa-2 cells, 3 days) | sensitivity of IKKα- or ATG7-deficient cells to EIPA (CCK-8) (MIA PaCa-2 cells; IKKα^Δ / ATG7^Δ vs WT MIA PaCa-2 cells (TP53 mutated), complete medium) | proliferation restored by albumin supplementation (MIA PaCa-2 cells; WT and IKKα KO MIA PaCa-2 cells, 0.2 mM glutamine with albumin, 3 days) | cell viability (total viable cells relative to day 0) (MIA PaCa-2 cells; WT and IKKα^Δ MIA PaCa-2 cells, complete medium, EIPA 10.5 μM) | enhanced proliferation caused by loss of IKKα or ATG7 (MIA PaCa-2 cells; WT, IKKα KO, ATG7 KO MIA PaCa-2 cells, complete medium, EIPA 10 μM, days 0-4) | NADPH to NADP ratio in NRF2 ablated cells (KC6141 cells; Nrf2 KD KC6141 cells on ECM) |
| --- | --- | --- | --- | --- | --- | --- | --- | --- |
| CN1CCc2cc(Nc3ncc(C4CC4)c(NCCCNC(=O)C4CCC4)n3)ccc2C1 [MRT68921] | severely compromised cell viability | further elevated |  |  |  |  |  |  |
| CCN(c1nc(N)c(C(=O)N=C(N)N)nc1Cl)C(C)C [EIPA, 5-(N-ethyl-N-isopropyl) amiloride] | EIPA-insensitive | reduced | very sensitive | much more sensitive; also recorded: highly sensitive | completely abrogated | suppression of cell viability | abrogated | ineffective |

— patent US12458630B2, “Combination therapy for cancer” (The Regents of the University of California, priority 2020, dated 2025)
